According to publication PMC9490060, “Synthesis and evaluation of anticancer activity of quillaic acid derivatives: A cell cycle arrest and apoptosis inducer through NF-κB and MAPK pathways” (Frontiers in Chemistry, 2022):

What was measured:
[1] = test system: HepG2 (human hepatocellular carcinoma cell line); test: MTT anti-proliferative assay, HepG2; format: cell-based; conditions: means ± SD, n = 3
Outline: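 Cells seeded at 1 × 10^4–1.2 × 10^4 per well were allowed to adhere 24 h, then exposed 48 h at 37 °C, 5% CO2 to compound at 1.25, 2.5, 5 and 10 μM (DMSO ≤0.1%). MCF-7 and HepG2 were grown in DMEM, HCT116 and BEL7402 in RPMI 1640, each with 10% FBS. MTT (final 2 mg/ml) was added for 4 h; formazan was dissolved in DMSO and read at 492 nm.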

HCT116 cells = test: Cell cycle analysis by flow cytometry; format: cell-based, human; conditions: HCT116, 30 μM, 24 h; control 53.9
Experimental: Inoculate HCT116 cells in a 6-well plate (5.0 × 10^5 cells per well) and incubate at 37°C for 24 h. The exponentially growing cells were then incubated with compound E at 10 and 30 μM. After 24 h, untreated cells (control) or cells treated with compound E were centrifuged at 1,000 rpm for 15 min, and then fixed in 70% ethanol at […] for at least 24 h. The cells were then resuspended in phosphate buffered saline (PBS) containing 0.1 mg/ml RNase A and 5 mg/ml PI. The DNA content of cells used for cell cycle distribution analysis was measured by flow cytometry, and analyzed using FACSalibur flow cytometer and Cell Quest software (Becton-Dickinson, Franklin Lakes, NJ, United States).

IC50 values HepG2 ([1]; 48 h incubation): strong activity
IC50 ([1]; Homo sapiens, HepG2, 48 h incubation): 8.89 ± 2.24 µM
SMILES: CC1(C)CC[C@]2(C(=O)OCCn3nnnc3-c3ccccc3)[C@H](O)C[C@]3(C)C(=CC[C@@H]4[C@@]5(C)CC[C@H](O)[C@@](C)(C=O)[C@@H]5CC[C@]43C)[C@@H]2C1 [Compound E, 2-(5-phenyl-1H-tetrazol-1-yl)ethyl (4aR,5R,6aS,6bR,8aR,9S,10S,12aR,12bR,14bS)-9-formyl-5,10-dihydroxy-2,2,6a,6b,9,12a-hexamethyl-1,3,4,5,6,6a,6b,7,8,8a,9,10,11,12,12a,12b,13,14b-octadecahydropicene-4a (2H)-carboxylate]
%G1 (HCT116 cells): 81.2%
